System: amnesia induced by scopolamine in rats
Experiment: passive avoidance test, amnesia induced by scopolamine in rats
Type: in vivo
Method: The purpose of the study is to examine the effects of etifoxine on amnesia, induced by a substance which is an antagonist of the cholinergic receptors in rats, scopolamine (see in particular Rush (1988) Behav. Neural. Biol. 1988 50:255-274).
Memory capacities are evaluated over the course of the passive avoidance test in a box with two compartments, dark and light. In a first step, the acquisition step, entering the dark compartment is associated with an unpleasant electric shock. In a second step, the retention step, the latency to enter the dark compartment is measured. The lower this latency, the more strongly the animal is suffering from amnesia.
Amnesia is induced by administering scopolamine 30 minutes before the information acquisition step.
Two series of tests were performed: • 1) Etifoxine was administered intraperitoneally 35 minutes before acquisition of the event. • 7 groups of 10 to 20 rats were formed, each group receiving the following respective treatments: • Group 1 (reference): scopolamine 0 mg/kg, etifoxine 0 mg/kg • Group 2 (control): scopolamine 0 mg/kg, etifoxine 50 mg/kg • Group 3: scopolamine 1.4 mg/kg, etifoxine 0 mg/kg • Group 4: scopolamine 1.4 mg/kg, etifoxine 6.2 mg/kg • Group 5: scopolamine 1.4 mg/kg, etifoxine 12.5 mg/kg • Group 6: scopolamine 1.4 mg/kg, etifoxine 25 mg/kg • Group 7: scopolamine 1.4 mg/kg, etifoxine 50 mg/kg • 2) Etifoxine was administered intraperitoneally immediately after acquisition of the event. • 7 groups of 10 rats were formed, each group receiving the following respective treatments: • Group 1 (reference): scopolamine 0 mg/kg, etifoxine 0 mg/kg • Group 2 (control): scopolamine 0 mg/kg, etifoxine 50 mg/kg • Group 3: scopolamine 1.4 mg/kg, etifoxine 0 mg/kg • Group 4: scopolamine 1.4 mg/kg, etifoxine 6.2 mg/kg • Group 5: scopolamine 1.4 mg/kg, etifoxine 12.5 mg/kg • Group 6: scopolamine 1.4 mg/kg, etifoxine 25 mg/kg • Group 7: scopolamine 1.4 mg/kg, etifoxine 50 mg/kg
For each test series and for each group the latency to enter the dark compartment was measured in the case of acquisition and in the case of retention.
For the first series of tests, a one-way ANOVA analysis was performed followed by the Student-Newman-Keuls test in order to find the differences between the groups. The difference is considered significant if the critical value P obtained was less than 0.05.
For the second series of tests, the non-parametric Kruskal-Wallis test was performed followed by the Dunn test in order to find the differences between the groups. The difference is considered significant if the critical value P obtained was less than 0.05.

Structure (SMILES) | time period to enter the dark compartment vs. reference groups (rats, scopolamine 1.4 mg/kg 30 minutes before acquisition, etifoxine 0, FIGS. 1, 2) | anti-amnesic action (animals, model where memory disorder is induced by scopolamine (summary statement)) | effect on the amnesic effects of scopolamine (latency to enter the dark compartment, retention) (rats, etifoxine 6.2-50 mg/kg intraperitoneally 35 minutes before acquisition, scopolamine 1.4 mg/kg 30 minutes before acquisition, FIG. 1) | effect on the amnesic effects of scopolamine (latency to enter the dark compartment, retention) (rats, etifoxine 6.2-50 mg/kg intraperitoneally immediately after acquisition, scopolamine 1.4 mg/kg 30 minutes before acquisition, FIG. 2)
CN1[C@@H]2C[C@@H](OC(=O)[C@H](CO)c3ccccc3)C[C@H]1[C@@H]1O[C@@H]12 [Scopolamine] | significantly shorter |  |  | 
CCNC1=Nc2ccc(Cl)cc2C(C)(c2ccccc2)O1.Cl (stereo not shown) [etifoxine, 6-chloro-2-ethylamino-4-methyl-4-phenyl-4H-[3,1]benzoxazine hydrochloride] |  | exhibits anti-amnesic action | counteracts the amnesic effects of scopolamine according to an inverted U-shaped curve | counteracts the amnesic effects of scopolamine according to an inverted U-shaped curve

— US20090298817A1, “ANTI-AMNESIC COMPOUNDS AND PHARMACEUTICAL CO[…]” (priority 2008, published 2009)
